{"source": "ChEMBL document CHEMBL2331407", "about": "“Mexican antidiabetic herbs: valuable sources of inhibitors of α-glucosidases” (J Nat Prod, 2013)", "key": {"Rattus norvegicus": {"species": "Rattus norvegicus", "experiment": "Gastroprotective activity in rat assessed as protection against ethanol-induced gastric injury", "type": "functional, Stomach", "details": "for ED50: Rattus norvegicus, Stomach"}, "[1]": {"experiment": "Inhibition of rat intestinal alpha-glucosidase"}, "[2]": {"test_system": "alpha-glucosidase (Rattus norvegicus)", "experiment": "Inhibition of rat intestinal alpha-glucosidase", "set-up": "concentration or dose not given beside the values", "details": "concentration not given here"}, "Alpha-glucosidase MAL12 [3]": {"molecular_target": "T1, Alpha-glucosidase MAL12 (Saccharomyces cerevisiae S288c, UniProt P53341)", "T1 sequence (P53341 whole entry)": "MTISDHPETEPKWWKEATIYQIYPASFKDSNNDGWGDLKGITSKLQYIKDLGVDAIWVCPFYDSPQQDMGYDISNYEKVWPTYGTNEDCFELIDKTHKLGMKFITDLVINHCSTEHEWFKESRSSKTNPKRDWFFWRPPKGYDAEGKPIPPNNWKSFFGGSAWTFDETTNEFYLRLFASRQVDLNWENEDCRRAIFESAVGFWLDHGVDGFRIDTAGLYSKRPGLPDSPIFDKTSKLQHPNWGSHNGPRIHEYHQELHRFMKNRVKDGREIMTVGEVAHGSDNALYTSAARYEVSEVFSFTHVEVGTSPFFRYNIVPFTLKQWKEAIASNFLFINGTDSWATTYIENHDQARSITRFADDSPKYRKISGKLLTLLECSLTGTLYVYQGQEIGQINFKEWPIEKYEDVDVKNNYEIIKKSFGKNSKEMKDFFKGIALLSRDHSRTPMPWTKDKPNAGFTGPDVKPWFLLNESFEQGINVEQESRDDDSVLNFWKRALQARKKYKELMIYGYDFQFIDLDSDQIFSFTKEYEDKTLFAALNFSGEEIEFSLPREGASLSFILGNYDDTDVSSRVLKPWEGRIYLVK", "experiment": "(§1) Inhibition of baker's yeast alpha-glucosidase"}, "[4]": {"molecular_target": "Oligo-1,6-glucosidase IMA1 (Saccharomyces cerevisiae S288c) (UniProt P53051)", "sequence (P53051 whole entry)": "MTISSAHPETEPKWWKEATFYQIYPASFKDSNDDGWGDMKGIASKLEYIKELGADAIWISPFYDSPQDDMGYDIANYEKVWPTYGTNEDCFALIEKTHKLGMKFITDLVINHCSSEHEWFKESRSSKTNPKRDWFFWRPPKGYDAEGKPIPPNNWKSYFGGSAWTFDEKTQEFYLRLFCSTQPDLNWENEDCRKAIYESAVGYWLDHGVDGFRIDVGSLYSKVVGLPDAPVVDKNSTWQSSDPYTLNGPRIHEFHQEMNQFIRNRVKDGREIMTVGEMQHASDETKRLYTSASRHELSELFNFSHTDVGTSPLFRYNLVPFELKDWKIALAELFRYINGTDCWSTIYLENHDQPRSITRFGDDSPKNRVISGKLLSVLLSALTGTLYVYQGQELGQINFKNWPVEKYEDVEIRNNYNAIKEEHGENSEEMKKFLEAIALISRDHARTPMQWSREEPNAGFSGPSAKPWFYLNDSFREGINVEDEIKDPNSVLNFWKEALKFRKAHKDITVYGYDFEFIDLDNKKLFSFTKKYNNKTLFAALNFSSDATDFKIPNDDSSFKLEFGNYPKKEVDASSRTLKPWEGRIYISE", "experiment": "as §1"}, "Alpha-glucosidase MAL12 [5]": {"molecular_target": "T1, Alpha-glucosidase MAL12", "experiment": "Mixed type inhibition of baker's yeast alpha-glucosidase by Dixon plot analysis"}, "[6]": {"molecular_target": "alpha-glucosidase (Mus musculus)", "experiment": "Inhibition of alpha-glucosidase from mouse intestine crude homogenate"}}, "data": [{"smiles": "COc1cc(O[C@@H]2O[C@H](CO[C@@H]3OC[C@](O)(CO)[C@H]3O)[C@@H](O)[C@H](O)[C@H]2O)c2c(-c3ccc(O)c(O)c3)cc(=O)oc2c1", "values": [{"measurement": "Activity", "setting": "Rattus norvegicus", "result": 68.85, "unit": "%"}, {"measurement": "ED50", "setting": "Rattus norvegicus", "result": 15, "unit": "mg/kg"}]}, {"smiles": "COc1cc(/C=C/C(=O)OC[C@H]2O[C@@H](O[C@H]3[C@H](Oc4cc5c(O[C@@H]6O[C@H](CO)[C@@H](O)[C@H](O)[C@H]6O)cc(O)cc5[o+]c4-c4ccc(O)c(O)c4)O[C@H](COC(=O)/C=C/c4ccc(O)c(O)c4)[C@@H](O)[C@@H]3O)[C@H](O)[C@@H](O)[C@@H]2O)ccc1O", "values": [{"measurement": "IC50", "setting": "[1]", "result": 193, "unit": "µM"}]}, {"smiles": "COC(C)(C)/C=C/C[C@@H](C)[C@H]1CC[C@@]2(C)[C@@H]3CC[C@@]45OC(=O)[C@]3(CC[C@]12C)[C@@H]4CC[C@H](O[C@@H]1O[C@H](CO)[C@@H](O)[C@@H](O)[C@H]1O)C5(C)C", "values": [{"measurement": "inhibition", "setting": "[2]", "result": 13.6, "unit": "%"}]}, {"smiles": "COc1cc(-c2oc3cc(O)cc(O)c3c(=O)c2O)ccc1O", "note": "[ISORHAMNETIN]", "values": [{"measurement": "IC50", "setting": "Alpha-glucosidase MAL12 [3]", "result": 160, "unit": "µM"}]}, {"smiles": "C[C@H](CC(O)C(O)C(C)(C)O)[C@H]1CC[C@@]2(C)[C@@H]3CC=C4[C@@H](CC[C@H](O[C@@H]5O[C@H](CO[C@@H]6O[C@H](CO)[C@@H](O)[C@H](O)[C@H]6O)[C@@H](O)[C@H](O)[C@H]5O)C4(C)C)[C@]3(C)CC[C@]12C", "note": "(stereo partly specified)", "values": [{"measurement": "inhibition", "setting": "[2]", "result": 13, "unit": "%"}]}, {"smiles": "COc1cc(/C=C/C(=O)OC[C@H]2O[C@@H](O[C@H]3[C@H](Oc4cc5c(O[C@@H]6O[C@H](CO)[C@@H](O)[C@H](O)[C@H]6O)cc(O)cc5[o+]c4-c4ccc(O)c(OC)c4)O[C@H](COC(=O)/C=C/c4ccc(O)c(O)c4)[C@@H](O)[C@@H]3O)[C@H](O)[C@@H](O)[C@@H]2O)ccc1O", "values": [{"measurement": "IC50", "setting": "[1]", "result": 200, "unit": "µM"}]}, {"smiles": "C=C1C(=O)O[C@@H]2C[C@@H](C)/C=C\\C(=O)[C@](C)(O)[C@H](OC(C)=O)[C@@H](OC(=O)/C(C)=C/C)[C@@H]12", "note": "[CALEIN C]", "values": [{"measurement": "IC50", "setting": "Alpha-glucosidase MAL12 [3]", "result": 280, "unit": "µM"}]}, {"smiles": "CO[C@H]1C=C2[C@@H](CC[C@H](O[C@@H]3O[C@H](CO)[C@@H](O)[C@@H](O)[C@H]3O)C2(C)C)[C@]2(C)CC[C@]3(C)[C@@H]([C@H](C)C/C=C/C(C)(C)O)CC[C@@]3(C)[C@H]12", "values": [{"measurement": "inhibition", "setting": "[2]", "result": 15.8, "unit": "%"}]}, {"smiles": "COc1cc(O)c2c(-c3ccc(O)c(O)c3)cc(=O)oc2c1", "values": [{"measurement": "IC50", "setting": "Alpha-glucosidase MAL12 [3]", "result": 62, "unit": "µM"}, {"measurement": "inhibition", "setting": "[4]", "result": "Dose-dependent effect"}]}, {"smiles": "COC(C)(C)/C=C/C[C@@H](C)[C@H]1CC[C@@]2(C)[C@@H]3C=C[C@@]45OC[C@]3(CC[C@]12C)[C@@H]4CC[C@H](O[C@@H]1O[C@H](CO)[C@@H](O)[C@H](O)[C@H]1O)C5(C)C", "values": [{"measurement": "inhibition", "setting": "[2]", "result": 11.5, "unit": "%"}]}, {"smiles": "CO[C@@H]1O[C@]23C=C[C@@H]4[C@@]1(CC[C@]1(C)[C@@H]([C@H](C)C/C=C/C(C)(C)O)CC[C@@]41C)[C@@H]2CC[C@H](O[C@@H]1O[C@H](CO)[C@@H](O)[C@H](O)[C@H]1O)C3(C)C", "values": [{"measurement": "inhibition", "setting": "[2]", "result": 10.9, "unit": "%"}]}, {"smiles": "C[C@H](C/C=C/C(C)(C)O)[C@H]1CC[C@@]2(C)[C@@H]3C=C[C@@]45OC[C@]3(CC[C@]12C)[C@@H]4CC[C@H](O[C@@H]1O[C@H](CO)[C@@H](O)[C@@H](O)[C@H]1O)C5(C)C", "values": [{"measurement": "inhibition", "setting": "[2]", "result": 12.5, "unit": "%"}]}, {"smiles": "C[C@H](C/C=C/C(C)(C)O)[C@H]1CC[C@@]2(C)[C@@H]3C=C[C@@]45OC[C@]3(CC[C@]12C)[C@@H]4CC[C@H](O[C@@H]1O[C@H](CO)[C@@H](O)[C@H](O)[C@H]1O)C5(C)C", "values": [{"measurement": "inhibition", "setting": "[2]", "result": 10.1, "unit": "%"}]}, {"smiles": "CCCC=C1OC(=O)c2ccccc21", "note": "[(E)-BUTYLIDENEPHTHALIDE]", "values": [{"measurement": "IC50", "setting": "Alpha-glucosidase MAL12 [3]", "result": 2350, "unit": "µM"}, {"measurement": "inhibition", "setting": "[4]", "result": "Dose-dependent effect"}, {"measurement": "Ki", "setting": "Alpha-glucosidase MAL12 [5]", "result": 4.86, "unit": "µM"}]}, {"smiles": "C[C@H]([C@H](O)[C@@H](O)[C@@H](O)C(C)(C)O)[C@H]1CC[C@@]2(C)[C@@H]3CC=C4[C@@H](CC[C@H](O[C@@H]5O[C@H](CO[C@@H]6O[C@H](CO)[C@@H](O)[C@H](O)[C@H]6O)[C@@H](O)[C@H](O)[C@H]5O)C4(C)C)[C@]3(C)CC[C@]12C", "values": [{"measurement": "inhibition", "setting": "[2]", "result": 21.7, "unit": "%"}]}, {"smiles": "O=c1cc(-c2ccc(O)c(O)c2)c2c(O)cc(O)cc2o1", "values": [{"measurement": "IC50", "setting": "Alpha-glucosidase MAL12 [3]", "result": 208, "unit": "µM"}, {"measurement": "inhibition", "setting": "[4]", "result": "Dose-dependent effect"}]}, {"smiles": "O=C(/C=C/c1ccc(O)c(O)c1)O[C@@H]1C[C@](O)(C(=O)O)C[C@@H](O)[C@H]1O", "note": "[CHLOROGENIC ACID]", "values": [{"measurement": "Activity", "setting": "Rattus norvegicus", "result": 74.04, "unit": "%"}, {"measurement": "ED50", "setting": "Rattus norvegicus", "result": 26, "unit": "mg/kg"}]}, {"smiles": "CC1(C)C=Cc2c(ccc(C(=O)CO)c2O)O1", "values": [{"measurement": "IC50", "setting": "Alpha-glucosidase MAL12 [3]", "result": 420, "unit": "µM"}]}, {"smiles": "CC(C)=C[C@H](O[C@@H]1O[C@H](CO)[C@@H](O)[C@@H](O)[C@H]1O)[C@@H](O)[C@@H](C)[C@H]1CC[C@@]2(C)[C@@H]3C=C[C@@]45OC[C@]3(CC[C@]12C)[C@@H]4CC[C@H](O[C@@H]1O[C@H](CO)[C@@H](O)[C@H](O)[C@H]1O)C5(C)C", "values": [{"measurement": "inhibition", "setting": "[2]", "result": 18.6, "unit": "%"}]}, {"smiles": "CC(C)=CC(=O)O[C@H]1C[C@@H](O)[C@@]2(C)CO[C@H]3[C@@H](O)[C@@]4(C)C5=CC[C@@H](c6ccoc6)[C@]5(C)CC[C@@H]4[C@]1(C)[C@@H]32", "note": "[MELIACINOLIN]", "values": [{"measurement": "IC50", "setting": "[6]", "result": 32.18, "unit": "µg/mL"}]}]}
